Assay results as given in ChEMBL document CHEMBL3091424, “Anti-tubercular agents. Part 8: synthesis, antibacterial and antitubercular activity of 5-nitrofuran based 1,2,3-triazoles” (Bioorg Med Chem Lett, 2013).
In brackets after ≈: the same amount, converted by molar mass. Activity calls are given as the source filed them. No cut-off for these calls is given here.

How the values were obtained:
Bacillus subtilis [1] = assay: Bactericidal activity against Bacillus subtilis MTCC 121 after 24 hrs; format: functional; settings: MTCC 121, 24 h
[2] = system: Mycobacterium tuberculosis; assay: Antimicrobial activity against Mycobacterium tuberculosis H37Rv after 3 weeks by broth dilution method; format: functional; settings: for MIC: 504 h
Staphylococcus aureus [3] = assay: Antimicrobial activity against Staphylococcus aureus MTCC 96 after 24 hrs by well diffusion method; format: functional; settings: MTCC 96, 24 h
Staphylococcus aureus [4] = assay: Antimicrobial activity against Staphylococcus aureus MLS-16 MTCC 2940 after 24 hrs by well diffusion method; format: functional; settings: MLS-16 MTCC 2940, 24 h
Staphylococcus aureus [5] = assay: Bactericidal activity against Staphylococcus aureus MLS-16 MTCC 2940 after 24 hrs; format: functional; settings: MLS-16 MTCC 2940, 24 h
Vero = assay: Cytotoxicity against african green monkey Vero cells; format: cell-based; settings: Chlorocebus sabaeus
Pseudomonas aeruginosa [6] = assay: Bactericidal activity against Pseudomonas aeruginosa MTCC 2453 after 24 hrs; format: functional; settings: MTCC 2453, 24 h
Bacillus subtilis [7] = assay: Antimicrobial activity against Bacillus subtilis MTCC 121 after 24 hrs by well diffusion method; format: functional; settings: MTCC 121, 24 h
Staphylococcus aureus [8] = assay: Antibiofilm activity against Staphylococcus aureus MTCC 96 after 24 hrs by crystal violet assay; format: functional, organism-based; settings: for IC50: MTCC 96, 24 h
Raoultella planticola [9] = assay: Antibiofilm activity against Klebsiella planticola MTCC 530 after 24 hrs by crystal violet assay; format: functional, organism-based; settings: for IC50: MTCC 530, 24 h
Staphylococcus aureus [10] = assay: Antimicrobial activity against methicillin-resistant Staphylococcus aureus after 24 hrs by microdilution method; format: functional
Pseudomonas aeruginosa [11] = assay: Antimicrobial activity against Pseudomonas aeruginosa MTCC 2453 after 24 hrs by well diffusion method; format: functional; settings: MTCC 2453, 24 h
Escherichia coli [12] = assay: Antimicrobial activity against Escherichia coli MTCC 739 after 24 hrs by well diffusion method; format: functional; settings: MTCC 739, 24 h
Enterococcus faecalis = assay: Antimicrobial activity against vancomycin -resistant Enterococcus faecalis after 24 hrs by microdilution method; format: functional
[13] = system: Mycobacterium tuberculosis; assay: Ratio of linezolid MIC to compound MIC for Mycobacterium tuberculosis H37Rv after 3 weeks by broth dilution method; format: functional
Candida albicans [14] = assay: Antimicrobial activity against Candida albicans MTCC 3017 at 150 ug/ml after 24 hrs by well diffusion method; format: functional, organism-based
Micrococcus luteus [15] = assay: Antimicrobial activity against Micrococcus luteus MTCC 2470 after 24 hrs by well diffusion method; format: functional; settings: MTCC 2470, 24 h
Escherichia coli [16] = assay: Bactericidal activity against Escherichia coli MTCC 739 after 24 hrs; format: functional; settings: MTCC 739, 24 h
MRC5 = assay: Cytotoxicity against human MRC5 cells; format: cell-based
Raoultella planticola [17] = assay: Bactericidal activity against Klebsiella planticola MTCC 530 after 24 hrs; format: functional; settings: MTCC 530, 24 h
Staphylococcus aureus [18] = assay: Bactericidal activity against Staphylococcus aureus MTCC 96 after 24 hrs; format: functional; settings: MTCC 96, 24 h
Raoultella planticola [19] = assay: Antimicrobial activity against Klebsiella planticola MTCC 530 after 24 hrs by well diffusion method; format: functional; settings: MTCC 530, 24 h
Micrococcus luteus [20] = assay: Bactericidal activity against Micrococcus luteus MTCC 2470 after 24 hrs; format: functional; settings: MTCC 2470, 24 h
Staphylococcus aureus [21] = assay: Antibiofilm activity against Staphylococcus aureus MLS-16 MTCC 2940 after 24 hrs by crystal violet assay; format: functional, organism-based; settings: MLS-16 MTCC 2940, 24 h
Candida albicans [22] = assay: microbe, parasite or virus in culture; settings: MTCC 3017, 24 h
Description: Antimicrobial activity against Candida albicans MTCC 3017 after 24 hrs by well diffusion method

| Structure (SMILES) | MBC (Bacillus subtilis [1]) [mg/L] | MIC (Staphylococcus aureus [3]) [mg/L] | MIC (Staphylococcus aureus [4]) [mg/L] | MBC (Staphylococcus aureus [5]) [mg/L] | IC50 (Vero) [µM] | MBC (Pseudomonas aeruginosa [6]) [mg/L] | MIC (Bacillus subtilis [7]) [mg/L] | IC50 (Staphylococcus aureus [8]) [mg/L] | IC50 (Raoultella planticola [9]) [mg/L] | MIC (Pseudomonas aeruginosa [11]) [mg/L] | MIC (Escherichia coli [12]) [mg/L] | Activity (Candida albicans [14]) | MIC (Micrococcus luteus [15]) [mg/L] | MBC (Escherichia coli [16]) [mg/L] | IC50 (MRC5) [µM] | MBC (Raoultella planticola [17]) [mg/L] | MBC (Staphylococcus aureus [18]) [mg/L] | MIC (Raoultella planticola [19]) [mg/L] | MBC (Micrococcus luteus [20]) [mg/L] | IC50 (Staphylococcus aureus [21]) [mg/L] | also measured |
| --- | --- | --- | --- | --- | --- | --- | --- | --- | --- | --- | --- | --- | --- | --- | --- | --- | --- | --- | --- | --- | --- |
| O=C(NCc1cn(Cc2ccc(F)c(Cl)c2)nn1)c1ccc([N+](=O)[O-])o1 | 1.17 (≈ 3.08 µM) | 18.8 (≈ 49.4 µM) | 2.34 (≈ 6.16 µM) | 2.34 (≈ 6.16 µM) | 344 | > 150 | 1.17 (≈ 3.08 µM) | 13.6 (≈ 35.8 µM) | 12.2 (≈ 32.1 µM) | > 150 | 18.8 (≈ 49.4 µM) | inactive | 2.34 (≈ 6.16 µM) | 18.8 (≈ 49.4 µM) | 254 | 37.5 (≈ 98.8 µM) | 18.8 (≈ 49.4 µM) | 18.8 (≈ 49.4 µM) | 2.34 (≈ 6.16 µM) | 1.1 (≈ 2.9 µM) | MIC [2]: 0.25 mg/L (≈ 0.658 µM); MIC (Staphylococcus aureus [10]): 8 mg/L (≈ 21.1 µM); MIC (Enterococcus faecalis): > 64 mg/L; Ratio [13]: 4 |
| CC[C@H]1OC(=O)[C@H](C)[C@@H](O[C@H]2C[C@@](C)(OC)[C@@H](O)[C@H](C)O2)[C@H](C)[C@@H](O[C@@H]2O[C@H](C)C[C@H](N(C)C)[C@H]2O)[C@](C)(O)C[C@@H](C)C(=O)[C@H](C)[C@@H](O)[C@]1(C)O [ERYTHROMYCIN] |  |  |  |  |  |  |  | 0.25 (≈ 0.341 µM) | 0.19 (≈ 0.259 µM) |  |  |  |  |  |  |  |  |  |  | 0.21 (≈ 0.286 µM) |  |
| COc1ccc(Cn2cc(CNC(=O)c3ccc([N+](=O)[O-])o3)nn2)cc1F | 4.68 (≈ 12.5 µM) | > 150 | 4.68 (≈ 12.5 µM) | 9.37 (≈ 25 µM) | 312 | > 150 | 2.34 (≈ 6.23 µM) |  | 9.8 (≈ 26.1 µM) | > 150 | > 150 | inactive | 4.68 (≈ 12.5 µM) | > 150 | 324 | 18.8 (≈ 50 µM) | > 150 | 18.8 (≈ 50 µM) | 9.37 (≈ 25 µM) | 3.4 (≈ 9.06 µM) | Activity [2]: inactive; inhibition (Staphylococcus aureus [8]): inactive |
| O=C(NCc1cn(Cc2cccc([N+](=O)[O-])c2)nn1)c1ccc([N+](=O)[O-])o1 | 4.68 (≈ 12.6 µM) | > 150 | 1.17 (≈ 3.14 µM) | 2.34 (≈ 6.29 µM) | 326 | > 150 | 2.34 (≈ 6.29 µM) | 84.5 (≈ 227 µM) | 14.5 (≈ 38.9 µM) | > 150 | 9.37 (≈ 25.2 µM) | inactive | 4.68 (≈ 12.6 µM) | 18.8 (≈ 50.4 µM) | 199 | 37.5 (≈ 101 µM) | > 150 | 18.8 (≈ 50.4 µM) | 9.37 (≈ 25.2 µM) | 0.8 (≈ 2.15 µM) | MIC [2]: 8 mg/L (≈ 21.5 µM); MIC (Staphylococcus aureus [10]): 8 mg/L (≈ 21.5 µM); MIC (Enterococcus faecalis): > 64 mg/L |
| O=C(NCc1cn(Cc2ccc([N+](=O)[O-])cc2)nn1)c1ccc([N+](=O)[O-])o1 | 4.68 (≈ 12.6 µM) | > 150 | 4.68 (≈ 12.6 µM) | 4.68 (≈ 12.6 µM) | 291 | > 150 | 2.34 (≈ 6.29 µM) |  | 17.9 (≈ 48.1 µM) | > 150 | > 150 | inactive | 4.68 (≈ 12.6 µM) | > 150 | 213 | 37.5 (≈ 101 µM) | > 150 | 18.8 (≈ 50.4 µM) | 9.37 (≈ 25.2 µM) | 3.8 (≈ 10.2 µM) | MIC [2]: 8 mg/L (≈ 21.5 µM); inhibition (Staphylococcus aureus [8]): inactive; MIC (Staphylococcus aureus [10]): 8 mg/L (≈ 21.5 µM); MIC (Enterococcus faecalis): > 64 mg/L |
| Clc1ccc(COC(Cn2ccnc2)c2ccc(Cl)cc2Cl)c(Cl)c1 (stereo unspecified) [MICONAZOLE] |  |  |  |  |  |  |  |  |  |  |  |  |  |  |  |  |  |  |  |  | MIC (Candida albicans [22]): 9.37 mg/L (≈ 22.5 µM) |
| O=C(NCc1cn(Cc2ccc(C(F)(F)F)cc2)nn1)c1ccc([N+](=O)[O-])o1 | 4.68 (≈ 11.8 µM) | > 150 | 2.34 (≈ 5.92 µM) | 2.34 (≈ 5.92 µM) | 289 | > 150 | 1.17 (≈ 2.96 µM) | 64.7 (≈ 164 µM) |  | > 150 | > 150 | inactive | 2.34 (≈ 5.92 µM) | > 150 | 321 | > 150 | > 150 | > 150 | 2.34 (≈ 5.92 µM) | 8.4 (≈ 21.2 µM) | Activity [2]: inactive; inhibition (Raoultella planticola [9]): inactive |
